Reference: patent publication US7049396B2, “Synthetic peptides that inhibit leukocyte superoxide anion production and/or attract leukocytes” (priority 1995, dated 2006)
Where a SMILES comes first, the peptide text is derived from it.

Assays:
[1] = system: S. choleraesuis, ATCC 6962; assay: Bacterial susceptibility to neutrophil phagocytosis; format: cell-based, Salmonella choleraesuis; details: bacteria treated at 8 MICs
Protocol: Plates were incubated at 37° C. for 18 hr. […] Viable bacteria were counted. Tests were repeated on three different days. […] The results were expressed as the mean ± standard deviation. […] S. choleraesuis, ATCC 6962 was used in this experiment. […] Slides were stained with LeukoStat solutions (Fisher, Pittsburgh, Pa.). […] At least 200 neutrophils were examined. […] Tests were repeated on three different days. Results were expressed as the mean±standard deviation.

[2] = system: rat intestinal epithelial cell line, IEC-6; format: cell-based
Protocol: Influence of PR-26 and PR-39 on intestinal epithelial cells. A nonradioactive assay based on the cellular conversion by viable cells of a tetrazolium salt into a blue formazan product was used to determine if PR-26 or PR-39 were toxic to intestinal epithelial cells. Ninety-six-well microtiter plates were seeded with the rat intestinal epithelial cell line, IEC-6, (5×10^4 cells/well) in DMEM containing 10% fetal bovine serum, 1% antibiotic/antimycotic, and […], and incubated at 37° C. for three days to achieve confluency. […] Well contents then were aspirated and monolayers were washed with medium. Medium (100 μl) and 15 μl of dye solution (Promega, Madison, Wis.) were added to each well and plates were incubated for 4 hr. at 37° C. Solubilization buffer (100 μl, Promega, Madison, Wis.) was added to each well and plates were incubated overnight to allow solubilization of the formazan crystals. Absorbance then was read at 570 nm using a microplate reader.

CC[C@H](C)[C@H](NC(=O)[C@H](CCCNC(=N)N)NC(=O)[C@@H]1CCCN1C(=O)[C@@H]1CCCN1C(=O)[C@H](CC(C)C)NC(=O)[C@H](CCCNC(=N)N)NC(=O)[C@@H]1CCCN1C(=O)[C@@H]1CCCN1C(=O)[C@H](Cc1ccccc1)NC(=O)[C@H](Cc1ccccc1)NC(=O)[C@@H]1CCCN1C(=O)[C@@H]1CCCN1C(=O)[C@@H]1CCCN1C(=O)[C@H](CCCNC(=N)N)NC(=O)[C@@H]1CCCN1C(=O)[C@H](CCCNC(=N)N)NC(=O)[C@@H]1CCCN1C(=O)[C@H](CC(C)C)NC(=O)[C@H](Cc1ccc(O)cc1)NC(=O)[C@@H]1CCCN1C(=O)[C@@H]1CCCN1C(=O)[C@H](CCCNC(=N)N)NC(=O)[C@@H]1CCCN1C(=O)[C@H](CCCNC(=N)N)NC(=O)[C@H](CCCNC(=N)N)NC(=O)[C@@H](N)CCCNC(=N)N)C(=O)N1CCC[C@H]1C(=O)N1CCC[C@H]1C(=O)NCC(=O)N[C@@H](Cc1ccccc1)C(=O)N1CCC[C@H]1C(=O)N1CCC[C@H]1C(=O)N[C@@H](CCCNC(=N)N)C(=O)N[C@@H](Cc1ccccc1)C(=O)N1CCC[C@H]1C(=O)N1CCC[C@H]1C(=O)N[C@@H](CCCNC(=N)N)C(=O)N[C@@H](Cc1ccccc1)C(=O)N1CCC[C@H]1C(=O)O [PR-39] (H-RRRPRPPYLPRPRPPPFFPPRLPPRIPPGFPPRFPPRFP-OH; N-terminus and C-terminus assumed)
phagocytic index of porcine neutrophils [1]: did not increase | concentration at which cytotoxicity occurred [2]: 500 nM | neutrophil viability (neutrophils): did not affect neutrophil viability
